According to ChEMBL document CHEMBL3232945 (Eur J Med Chem, 2014):

How the values were obtained:
Rattus norvegicus [1] = experiment: Antiarrhythmic activity in barium chloride-induced Wistar rat assessed as increase in mortality time at 40 mg/kg, ip administered 60 mins before barium chloride challenge (reference value: 682.8 +/- 9.656 secs); format: functional, Heart; settings: route intraperitoneal
Rattus norvegicus [2] = experiment: Toxicity in anaesthetized-Wistar rat assessed as P-Q ECG interval at 40 mg/kg, ip after 45 mins (reference value: 52.5 +/- 0.780 ms); format: organism-based; parameters: dose 40 mg/kg, route intraperitoneal; settings: in vivo, 0.75 h
Rattus norvegicus [3] = experiment: Toxicity in anesthetized-normotensive Wistar rat assessed as heart rate at 40 mg/kg, ip after 45 mins (reference value: 316.82 +/- 8.452 bpm); format: organism-based; parameters: dose 40 mg/kg, route intraperitoneal; settings: in vivo, 0.75 h
Rattus norvegicus [4] = experiment: Toxicity in anaesthetized-Wistar rat assessed as Q-T ECG interval at 40 mg/kg, ip measured immediately at 0 min (reference value: 78.8 +/- 1.030 ms); format: organism-based; parameters: dose 40 mg/kg, route intraperitoneal; settings: in vivo, 0 h
Rattus norvegicus [5] = experiment: Toxicity in […] normotensive Wistar rat assessed as mean arterial pressure at 40 mg/kg, ip after 15 mins (reference value: 93.81 +/- 1.543 mmHg); format: organism-based, Artery; parameters: dose 40 mg/kg, route intraperitoneal; settings: in vivo, 0.25 h
Rattus norvegicus [6] = experiment: Toxicity in anaesthetized-Wistar rat assessed as QRS ECG interval at 40 mg/kg, ip after 30 mins (reference value: 19.9 +/- 1.393 ms); format: organism-based; parameters: dose 40 mg/kg, route intraperitoneal; settings: in vivo, 0.5 h
Rattus norvegicus [7] = experiment: Toxicity in anesthetized-normotensive Wistar rat assessed as heart rate at 40 mg/kg, ip after 15 mins (reference value: 313.93 +/- 9.912 bpm); format: organism-based; parameters: dose 40 mg/kg, route intraperitoneal; settings: in vivo, 0.25 h
Rattus norvegicus [8] = experiment: Toxicity in […] normotensive Wistar rat assessed as mean arterial pressure at 40 mg/kg, ip measured immediately at 0 min (reference value: 94.21 +/- 2.065 mmHg); format: organism-based, Artery; parameters: dose 40 mg/kg, route intraperitoneal; settings: in vivo, 0 h
Rattus norvegicus [9] = experiment: Antihypertensive activity in Wistar rat assessed as mean arterial pressure at 40 mg/kg, ip after 45 mins (reference value: 193.96 +/- 0.865 mmHg); format: functional, Artery; settings: route intraperitoneal
Rattus norvegicus [10] = experiment: Toxicity in […] normotensive Wistar rat assessed as mean arterial pressure at 40 mg/kg, ip after 45 mins (reference value: 94.83 +/- 0.943 mmHg); format: organism-based, Artery; parameters: dose 40 mg/kg, route intraperitoneal; settings: in vivo, 0.75 h
Rattus norvegicus [11] = experiment: Toxicity in anaesthetized-Wistar rat assessed as QRS ECG interval at 40 mg/kg, ip measured immediately at 0 min (reference value: 19.6 +/- 1.142 ms); format: organism-based; parameters: dose 40 mg/kg, route intraperitoneal; settings: in vivo, 0 h
Rattus norvegicus [12] = experiment: Toxicity in anaesthetized-Wistar rat assessed as QRS ECG interval at 40 mg/kg, ip after 45 mins (reference value: 20.2 +/- 1.348 ms); format: organism-based; parameters: dose 40 mg/kg, route intraperitoneal; settings: in vivo, 0.75 h
Rattus norvegicus [13] = experiment: Toxicity in anaesthetized-Wistar rat assessed as P-Q ECG interval at 40 mg/kg, ip after 60 mins (reference value: […] +/- 0.924 ms); format: organism-based; parameters: dose 40 mg/kg, route intraperitoneal; settings: in vivo, 1 h
Rattus norvegicus [14] = experiment: Toxicity in anaesthetized-Wistar rat assessed as P-Q ECG interval at 40 mg/kg, ip after 15 mins (reference value: 52.2 +/- 1.158 ms); format: organism-based; parameters: dose 40 mg/kg, route intraperitoneal; settings: in vivo, 0.25 h
Rattus norvegicus [15] = experiment: Toxicity in […] normotensive Wistar rat assessed as mean arterial pressure at 40 mg/kg, ip after 30 mins (reference value: 94.68 +/- 1.213 mmHg); format: organism-based, Artery; parameters: dose 40 mg/kg, route intraperitoneal; settings: in vivo, 0.5 h
Rattus norvegicus [16] = experiment: Toxicity in anaesthetized-Wistar rat assessed as Q-T ECG interval at 40 mg/kg, ip after 30 mins (reference value: 78.3 +/- 0.860 ms); format: organism-based; parameters: dose 40 mg/kg, route intraperitoneal; settings: in vivo, 0.5 h
Rattus norvegicus [17] = experiment: Toxicity in anesthetized-normotensive Wistar rat assessed as heart rate at 40 mg/kg, ip after 60 mins (reference value: 314.96 +/- 9.442 bpm); format: organism-based; parameters: dose 40 mg/kg, route intraperitoneal; settings: in vivo, 1 h
Rattus norvegicus [18] = experiment: Antihypertensive activity in Wistar rat assessed as mean arterial pressure at 40 mg/kg, ip measured immediately at 0 min (reference value: 194.08 +/- 1.962 mmHg); format: functional, Artery; settings: route intraperitoneal
Rattus norvegicus [19] = experiment: Toxicity in anaesthetized-Wistar rat assessed as QRS ECG interval at 40 mg/kg, ip after 15 mins (reference value: 18.9 +/- 1.563 ms); format: organism-based; parameters: dose 40 mg/kg, route intraperitoneal; settings: in vivo, 0.25 h
Rattus norvegicus [20] = experiment: Antihypertensive activity in Wistar rat assessed as mean arterial pressure at 40 mg/kg, ip after 60 mins (reference value: 195.11 +/- 0.531 mmHg); format: functional, Artery; settings: route intraperitoneal
Rattus norvegicus [21] = experiment: Toxicity in anaesthetized-Wistar rat assessed as P-Q ECG interval at 40 mg/kg, ip after 30 mins (reference value: […] +/- 0.927 ms); format: organism-based; parameters: dose 40 mg/kg, route intraperitoneal; settings: in vivo, 0.5 h
Rattus norvegicus [22] = experiment: Toxicity in anaesthetized-Wistar rat assessed as QRS ECG interval at 40 mg/kg, ip after 60 mins (reference value: 19.3 +/- 0.873 ms); format: organism-based; parameters: dose 40 mg/kg, route intraperitoneal; settings: in vivo, 1 h
Rattus norvegicus [23] = experiment: Toxicity in anaesthetized-Wistar rat assessed as Q-T ECG interval at 40 mg/kg, ip after 60 mins (reference value: 79.7 +/- 0.965 ms); format: organism-based; parameters: dose 40 mg/kg, route intraperitoneal; settings: in vivo, 1 h
Rattus norvegicus [24] = experiment: Toxicity in anaesthetized-Wistar rat assessed as Q-T ECG interval at 40 mg/kg, ip after 45 mins (reference value: 78.8 +/- 0.927 ms); format: organism-based; parameters: dose 40 mg/kg, route intraperitoneal; settings: in vivo, 0.75 h
Rattus norvegicus [25] = experiment: Antihypertensive activity in Wistar rat assessed as mean arterial pressure at 40 mg/kg, ip after 30 mins (reference value: 194.72 +/- 1.002 mmHg); format: functional, Artery; settings: route intraperitoneal
Rattus norvegicus [26] = experiment: Toxicity in anaesthetized-Wistar rat assessed as Q-T ECG interval at 40 mg/kg, ip after 15 mins (reference value: 79.4 +/- 1.270 ms); format: organism-based; parameters: dose 40 mg/kg, route intraperitoneal; settings: in vivo, 0.25 h
Rattus norvegicus [27] = experiment: Toxicity in anaesthetized-Wistar rat assessed as P-Q ECG interval at 40 mg/kg, ip measured immediately at 0 min (reference value: 52.4 +/- 0.927 ms); format: organism-based; parameters: dose 40 mg/kg, route intraperitoneal; settings: in vivo, 0 h
Rattus norvegicus [28] = experiment: Antihypertensive activity in Wistar rat assessed as mean arterial pressure at 40 mg/kg, ip after 15 mins (reference value: 195.68 +/- 1.623 mmHg); format: functional, Artery; settings: route intraperitoneal
Rattus norvegicus [29] = experiment: Toxicity in […] normotensive Wistar rat assessed as mean arterial pressure at 40 mg/kg, ip after 60 mins (reference value: 95.07 +/- 1.973 mmHg); format: organism-based, Artery; parameters: dose 40 mg/kg, route intraperitoneal; settings: in vivo, 1 h
Rattus norvegicus [30] = experiment: Toxicity in anesthetized-normotensive Wistar rat assessed as heart rate at 40 mg/kg, ip after 30 mins (reference value: 317.68 +/- 7.631 bpm); format: organism-based; parameters: dose 40 mg/kg, route intraperitoneal; settings: in vivo, 0.5 h
Rattus norvegicus [31] = experiment: Antiarrhythmic activity in barium chloride-induced Wistar rat assessed as increase in appearance time of arrhythmia at 40 mg/kg, ip administered 60 mins before barium chloride challenge (reference value: 129.4 +/- 4.373 sec); format: functional, Heart; settings: route intraperitoneal
Rattus norvegicus [32] = experiment: Toxicity in anesthetized-normotensive Wistar rat assessed as heart rate at 40 mg/kg, ip measured immediately at 0 min (reference value: 316.62 +/- 9.643 bpm); format: organism-based; parameters: dose 40 mg/kg, route intraperitoneal; settings: in vivo, 0 h

Compound | Time (Rattus norvegicus [1]) [s] | Activity (Rattus norvegicus [2]) [min] | Activity (Rattus norvegicus [3]) [bpm] | Activity (Rattus norvegicus [4]) [min] | Activity (Rattus norvegicus [5]) [mmHg] | Activity (Rattus norvegicus [6]) [ms] | Activity (Rattus norvegicus [7]) [bpm] | Activity (Rattus norvegicus [8]) [mmHg] | Activity (Rattus norvegicus [9]) [mmHg] | Activity (Rattus norvegicus [10]) [mmHg] | Activity (Rattus norvegicus [11]) [min] | Activity (Rattus norvegicus [12]) [min] | Activity (Rattus norvegicus [13]) [min] | Activity (Rattus norvegicus [14]) [min] | Activity (Rattus norvegicus [15]) [mmHg] | Activity (Rattus norvegicus [16]) [min] | Activity (Rattus norvegicus [17]) [bpm] | Activity (Rattus norvegicus [18]) [mmHg] | Activity (Rattus norvegicus [19]) [min] | Activity (Rattus norvegicus [20]) [mmHg] | further results
O=C1/C(=C\c2ccccc2)S/C(=N\c2ccccc2)N1CC(O)CN1CCN(C2CCCCC2)CC1 (centres undefined) | 944.9 | 50.6 | 294.42 | 72.8 | 85.61 | 21.9 | 312.65 | 93.99 | 138.63 | 64.01 | 20 | 22.8 | 51.3 | 51.7 | 77.84 | 73.3 | 303.42 | 195.99 | 21.4 | 158.39 | Activity (Rattus norvegicus [21]): 52.3 min; Activity (Rattus norvegicus [22]): 22.6 min; Activity (Rattus norvegicus [23]): 71.2 ms; Activity (Rattus norvegicus [24]): 72.9 ms; Activity (Rattus norvegicus [25]): 151.12 mmHg; Activity (Rattus norvegicus [26]): 72.9 min; Activity (Rattus norvegicus [27]): 51.2 ms; Activity (Rattus norvegicus [28]): 185.69 mmHg; Activity (Rattus norvegicus [29]): 75.43 mmHg; Activity (Rattus norvegicus [30]): 289.54 bpm; Time (Rattus norvegicus [31]): 297.5 s; Activity (Rattus norvegicus [32]): 324.13 bpm
O=C1/C(=C\c2ccccc2)S/C(=N\c2ccccc2)N1CC(O)CN1CCC(C(O)(c2ccccc2)c2ccccc2)CC1 (centres undefined) | 1162.1 | 52.4 | 295.73 | 72.9 | 76.73 | 23.8 | 310.46 | 91.39 | 135.96 | 64.53 | 22.4 | 24.2 | 50.2 | 50.1 | 70.26 | 74.3 | 302.12 | 193.69 | 23.1 | 162.87 | Activity (Rattus norvegicus [21]): 51.3 min; Activity (Rattus norvegicus [22]): 22.5 min; Activity (Rattus norvegicus [23]): 72.7 ms; Activity (Rattus norvegicus [24]): 4.49e+06 ms; Activity (Rattus norvegicus [25]): 139.21 mmHg; Activity (Rattus norvegicus [26]): 73.4 min; Activity (Rattus norvegicus [27]): 49.8 ms; Activity (Rattus norvegicus [28]): 176.43 mmHg; Activity (Rattus norvegicus [29]): 71.94 mmHg; Activity (Rattus norvegicus [30]): 279.31 bpm; Time (Rattus norvegicus [31]): 323.4 s; Activity (Rattus norvegicus [32]): 332.05 bpm
